In patent publication US20210214421A1 (priority 2018, published 2021):

Key:
Assay in all cases: microbe, parasite or virus in culture
Type in all cases: cell-based
[1] = test system: Staphylococcus pseudintermedius strain 69687; settings: Staphylococcus pseudintermedius, 69687, 24 h, read-out: minimal inhibiting concentration (breakthrough point)
[2] = test system: Staphylococcus pseudintermedius strain HH15; settings: HH15, 24 h, read-out: minimal inhibiting concentration (breakthrough point)
[3] = test system: Staphylococcus pseudintermedius strain GL151A; settings: 24 h, read-out: minimal inhibiting concentration (breakthrough point)
[4] = test system: Staphylococcus pseudintermedius strain 23929; settings: Staphylococcus pseudintermedius, 23929, 24 h, read-out: minimal inhibiting concentration (breakthrough point)

Measured: MIC

CCC[C@@H]1C[C@@H](C(=O)N[C@@H]([C@H]2O[C@H](SC)[C@H](O)[C@@H](O)[C@H]2O)[C@H](C)Cl)N(C)C1 [clindamycin]
625 µg/mL: all assays above
